The values that follow come from patent US6087120A, “Measurement of complement activation by biomaterials by means of complement convertase cleavage of peptide substrates” (HaemoProbe B.V., priority 1996, dated 2000).

What all share (assay type): biochemical, Human
The subject of one experiment is complement convertase. The experiment is described as follows: Effect of enzyme inhibitors or EDTA present during incubation of PDMS in def PPP on convertase formation. The conditions noted are these: for inhibition of substrate conversion by inhibitor added prior to incubation: PDMS in def PPP aliquots, substrate H-Leu-Gly-Arg-pNA, FIG. 6. The procedure: To verify the specificity of complement convertase activity, PDMS was incubated with diluted def PPP supplemented with Ca^++ (allowing convertases to be formed) or with EDTA (preventing convertase formation).
A number of enzyme inhibitors was used to further specify the complement convertase test of the incubated def PPP with substrate H-Leu-Gly-Arg-pNA.During incubation with PDMS in different aliquots a specific thrombin inhibitor (I2581, Kabi), C1 esterase inhibitor (Sigma), the plasmin/kallikrein/chymotrypsin inhibitor aprotinin (Bayer) and EDTA was used.

The subject of experiment [1] is C5-convertase. Nature of the experiment: Complement convertase bound to biomaterial surface: cleavage of BOC-Leu-Gly-Arg-pNA, OD 405 nm. Conditions: washed PDMS after incubation in def PPP; 60 hours; FIG. 3a. The procedure: Human blood was collected from a healthy volunteer by vena puncture. […] Then blood was centrifuged (1100 xg) to obtain separation between plasma and blood cells. In our experiments we used this citrated human plasma after treatment with reptilase to coagulate fibrinogen. This plasma, deficient of fibrinogen (def PPP), contains the other coagulation components and can be mixed with Ca^++ containing buffer to optimize complement activation. This def PPP was stored in aliquots at -80° C. We diluted this in 50 mM TRIS buffer+33 mM CaCl2 (pH 7.4) to a percentage of 20% prior to use. The biomaterial PDMS (polydimethyl-siloxane, silicon rubber) was cut into 1 cm^2 pieces. For cleaning the biomaterial it was incubated at first in 70% ethanol, and then rinsed in 0.9% NaCl. During the experiment the pieces of biomaterials were incubated in 500 μl diluted def PPP during 0, 10, 30, or 60 min at room temperature. After incubation, the biomaterials were rinsed 3 times with saline. Then the biomaterials were incubated in BOC-Leu-Gly-Arg-pNA, diluted in TRIS buffer +33 mM CaCl2, during 60 hours at room temperature in the dark. Simultaneously, also 100 μl def PPP, in which the biomaterials had been incubated, were mixed with 100 μl of H-Leu-Gly-Arg-pNA or Bz-Leu-Gly-Arg-pNA, diluted in TRIS buffer, supplemented with 33 mM CaCl2.

For experiment [2], the system named is C5-convertase. The experiment is described as follows: Complement convertase released in incubated def PPP: cleavage of H- or Bz-Leu-Gly-Arg-pNA, OD 405 nm. The conditions noted are these: for substrate cleavage in the incubated plasma solution: def PPP after incubation with PDMS, 60 hours, FIG. 3a; for specificity of the substrate for complement activation: judged from the effect of EDTA and enzyme inhibitors on cleavage, FIG. 6. From the text: Human blood was collected from a healthy volunteer by vena puncture. Blood was mixed immediately with sodium citrate (0.316%, final concentration) to prevent clotting. Then blood was centrifuged (1100 xg) to obtain separation between plasma and blood cells. In our experiments we used this citrated human plasma after treatment with reptilase to coagulate fibrinogen. This plasma, deficient of fibrinogen (def PPP), contains the other coagulation components and can be mixed with Ca^++ containing buffer to optimize complement activation. This def PPP was stored in aliquots at -80° C. We diluted this in 50 mM TRIS buffer+33 mM CaCl2 (pH 7.4) to a percentage of 20% prior to use. The biomaterial PDMS (polydimethyl-siloxane, silicon rubber) was cut into 1 cm^2 pieces. For cleaning the biomaterial it was incubated at first in 70% ethanol, and then rinsed in 0.9% NaCl. During the experiment the pieces of biomaterials were incubated in 500 μl diluted def PPP during 0, 10, 30, or 60 min at room temperature. After incubation, the biomaterials were rinsed 3 times with saline. Then the biomaterials were incubated in BOC-Leu-Gly-Arg-pNA, diluted in TRIS buffer +33 mM CaCl2, during 60 hours at room temperature in the dark. Simultaneously, also 100 μl def PPP, in which the biomaterials had been incubated, were mixed with 100 μl of H-Leu-Gly-Arg-pNA or Bz-Leu-Gly-Arg-pNA, diluted in TRIS buffer, supplemented with 33 mM CaCl2. After these 60 hours the OD was measured at 405 nm in a spectrophotometer (microplate reader 3550 UV; Biorad, Richmond, Calif., USA).
In a second experiment the incubated def PPP was incubated in the presence of Ca^++ as described above and 100 μl def PPP was collected after 30 minutes. Then this collected def PPP was incubated with H-Leu-Gly-Arg-pNA and Bz-Leu-Gly-Arg-pNA in the presence of Ca^++ or in the absence of Ca^++ with EDTA.

Entries after “also recorded” stand apart in the source; their conditions may differ. Peptide text beside a SMILES is read from it. * marks the point of attachment. pNA = O=[N+]([O-])c1ccc(N*)cc1; Boc = CC(C)(C)OC(=O)*; Bz = O=C(c1ccccc1)*

As for aprotinin, the “inhibition of substrate conversion by inhibitor added prior to incubation” value in the experiment on complement convertase is given as “did not inhibit substrate conversion; also recorded: then aprotinin”.
As for `CC(C)C[C@H](NC(=O)OC(C)(C)C)C(=O)NCC(=O)N[C@@H](CCCNC(=N)N)C(=O)Nc1ccc([N+](=O)[O-])cc1` [BOC-Leu-Gly-Arg-pNA] (Boc-Leu-Gly-Arg-pNA), the “substrate cleavage on the PDMS surface” value with C5-convertase [1] was “most effective on the PDMS surface; also recorded: colour formation”.
For `O=C(O)CN(CCN(CC(=O)O)CC(=O)O)CC(=O)O` [EDTA, ethylenediamine tetra-acetic acid, reference compound], in the experiment with C5-convertase [2] (def PPP collected after 30 min with PDMS, EDTA added with the substrate, FIG. 4a), the “effect of EDTA during substrate cleavage (second incubation) on formed convertases” value is on record as “did not prevent substrate cleavage by formed complexes; also recorded: formed convertases remained active in EDTA”. For the same compound, in the experiment on complement convertase, the “inhibition of substrate conversion by inhibitor added prior to incubation” value is recorded as “almost completely prevented substrate conversion; also recorded: best inhibitor”. The “convertase formation with EDTA instead of Ca++ during incubation” value in the experiment on complement convertase (PDMS in diluted def PPP supplemented with Ca++ or EDTA) is reported as “completely prevented convertase formation”.
For the compound `CC(C)C[C@H](N)C(=O)NCC(=O)N[C@@H](CCCNC(=N)N)C(=O)Nc1ccc([N+](=O)[O-])cc1` [H-Leu-Gly-Arg-pNA] (H-Leu-Gly-Arg-pNA), the “substrate cleavage in the incubated plasma solution” value with C5-convertase [2] is listed as “effective in the plasma solution; also recorded: colour formation”. The “specificity of the substrate for complement activation” value in the experiment on C5-convertase [2] (FIG. 4a) is on record as “complement dependent”.
With `CC(C)C[C@H](NC(=O)c1ccccc1)C(=O)NCC(=O)N[C@@H](CCCNC(=N)N)C(=O)Nc1ccc([N+](=O)[O-])cc1` [Bz-Leu-Gly-Arg-pNA] (Bz-Leu-Gly-Arg-pNA), the “substrate cleavage in the incubated plasma solution” value with C5-convertase [2] is on record as “effective in the plasma solution; also recorded: colour formation”. For the same compound, the “specificity of the substrate for complement activation” value in the experiment on C5-convertase [2] (FIG. 4a) is on record as “not reduced by EDTA; also recorded: considered non-specific”.
